Assay results from patent publication US6448247B1, “Method for treating an inflammatory disease” (Sankyo Company, Limited, priority 1995, dated 2002).
Like-named read-outs stand apart in the source and are kept apart here.

Key:
[1] = test system: increased vascular permeability induced by substance P (SP), an NK1 receptor agonist; assay: Inhibitory Effect on SP-Induced Increased Vascular Permeability; format: in vivo, guinea pig; details: i.v., male Hartley guinea pigs, pigment (Evans blue) leakage into primary bronchus 15 min after SP i.v.
Method: The inhibitory effect on increased vascular permeability induced by substance P (SP), an NK1 receptor agonist, was assessed based on the amount of pigment leakage as an index using guinea pigs (body weight: approx. 400 g, male Hartley guinea pigs). Immediately after administering pigment (Evans blue: 20 mg/kg, i.v.) and the test drug in that order into the femoral vein of the guinea pigs under pentobarbital anaesthesia (25 mg/kg, i.p.), increased vascular permeability was induced by administration of SP ([…], i.v.). Fifteen minutes later, the guinea pigs were sacrificed by chloroform anaesthesia and the amount of pigment that leaked into the primary bronchus was measured according to the method of Harada (J. Pharm. Pharmacol., 23, 218, 1971). Inhibitory effect was determined based on the amount of pigment leakage found in guinea pigs not treated with the test drug, and expressed as the percent of inhibition (%) and the dose level that caused inhibition of 50% (ID50).

[2] = target: T1, NK1 receptors (Cavia porcellus, UniProt P30547); assay: NK1 Receptor Binding Test; parameters: species or system guinea pig
T1 construct: A crude membrane fraction was prepared from the lung of male Hartley guinea pigs; from tissue; host or cells: guinea pig lung (crude membrane fraction)
Method: (a) Preparation of Crude Lung Membrane Fraction
A crude membrane fraction was prepared from the lung of male Hartley guinea pigs. The guinea pigs were bled from the cava abdominalis under chloroform anaesthesia and the pulmonary airway tissue was extracted immediately.
The extracted lung was perfused with a buffer (1) (50 mM Tris-HCl, pH 7.4), thinly cut in the buffer, and then homogenised in a buffer (2) [buffer (1) containing 120 mM sodium chloride and 5 mM potassium chloride] using a Polytron homogenizer. The tissue mass was removed from the homogenate by filtration with a nylon mesh (50 μm) and the supernatant was centrifuged (30,000×g, 30 minutes, 4° C.). The resultant pellet was resuspended in an ice-cooled buffer (3) [buffer (1) containing 10 mM EDTA and 300 mM potassium chloride], allowed to stand at 4° C. for 60 minutes and then washed centrifugally twice (30,000×g, 15 minutes, 4° C.).
(§1) The crude membrane fraction was preserved at −80° C. before use.
(§2) (b) Receptor Binding Test
(§3) To a mixed solution (250 μl) of the test drug and [^3H]-substance P (final concentration: 1 nM) (50 mM Tris-HCl, pH 7.4; 6 mM manganese chloride, 800 μg/ml BSA, 8 μg/ml chymostatin, 8 μg/ml leupeptin, 80 μg/ml bacitracin, 20 μg/ml phosphoramidon) was added a crude lung membrane fraction solution (250 μl), followed by incubation at room temperature for 30 minutes.
At the end of this time, a lung membrane ingredient was recovered on a GF/B glass fiber filter (manufactured by Whatman Co.) using an automatic filtering device (manufactured by Brandel Co.).
The glass filter was used after being pre-treated with a 0.1% polyethyleneimine solution for about 4 hours so as to inhibit non-specific binding as little as possible. The membrane ingredient-recovered filter was transferred to a mini-plastic vial containing a pico flow (4 ml) and the radioactivity was measured using a liquid scintillation counter (LSC3000, manufactured by Beckman Co.).

[3] = target: T2, NK2 receptors (Cavia porcellus, UniProt Q64077); assay: NK2 Receptor Binding Test; parameters: species or system guinea pig
T2 construct: A crude membrane fraction was prepared from the ileum of male Hartley guinea pigs; from tissue; host or cells: guinea pig ileum (crude membrane fraction)
T2 sequence (Q64077 1-402): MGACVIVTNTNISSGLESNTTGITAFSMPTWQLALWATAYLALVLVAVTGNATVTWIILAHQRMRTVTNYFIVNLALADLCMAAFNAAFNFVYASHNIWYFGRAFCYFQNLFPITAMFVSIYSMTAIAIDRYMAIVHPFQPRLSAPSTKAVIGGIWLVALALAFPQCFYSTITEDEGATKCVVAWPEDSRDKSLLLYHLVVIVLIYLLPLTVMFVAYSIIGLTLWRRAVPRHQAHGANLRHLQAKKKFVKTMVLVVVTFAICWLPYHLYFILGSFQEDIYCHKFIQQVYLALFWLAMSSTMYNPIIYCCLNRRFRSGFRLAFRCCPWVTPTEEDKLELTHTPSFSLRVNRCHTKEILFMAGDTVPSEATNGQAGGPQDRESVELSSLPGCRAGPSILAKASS
Method: (a) Preparation of Crude Ileum Membrane Fraction
A crude membrane fraction was prepared from the ileum of male Hartley guinea pigs. The guinea pigs were bled from the cava abdominalis under chloroform anaesthesia and the ileum was extracted immediately.
After the contents, secreta and epithelium of the lumen had been scraped off using a glass slide, the extracted ileum was thinly cut in a buffer (1) (50 mM Tris-HCl, pH 7.4) and then homogenised in a buffer (2) [buffer (1) containing 120 mM sodium chloride and 5 mM potassium chloride] using a Polytron homogenizer.
The tissue mass was removed from the homogenate by filtration with a nylon mesh (50 μm) and the supernatant was centrifuged (30,000×g, 30 minutes, 4° C.). The resultant pellet was resuspended in an ice-cooled buffer (3) [buffer (1) containing 10 mM EDTA and 30 mM potassium chloride], allowed to stand at 4° C. for 60 minutes and then washed centrifugally twice (30,000×g, 15 minutes, 4° C.).
as §1, §2
as §3, with “and [^3H]-SR-48968 (manufactured by Amasham Co., final” for “and [^3H]-substance P (final”, “7.4; 4.6” for “7.4; 6”, “[…]” for “20 μg/ml”, “crude ileum” for “crude lung”
At the end of this time, a membrane ingredient was recovered on a GF/B glass fiber filter (manufactured by Whatman Co.) using an automatic filtering device (manufactured by Brandel Co.). The glass filter was used after pre-treatment with a 0.1% polyethyleneimine solution for about 4 hours so as to inhibit non-specific binding as little as possible.
The membrane ingredient-recovered filter was transferred to a mini-plastic vial containing a pico flow (4 ml) and the radioactivity was measured using a liquid scintillation counter (LSC3000, manufactured by Beckman Co.).

[4] = test system: bronchoconstriction induced with [Nle^10]-NKA[4-10], an NK2 receptor agonist; assay: Inhibitory Effect on NKA-Induced Bronchoconstriction; format: in vivo, guinea pig; details: i.v., male Hartley guinea pigs, airway pressure, test drug 5 min before [Nle^10]-NKA[4-10] i.v.
Method: The inhibitory effect on bronchoconstriction induced with [Nle^10]-NKA[4-10], an NK2 receptor agonist having higher specificity than neurokinin A (NKA), was assessed based on airway pressure as an index according to the modified method of Konzett-Rössler [Naunyn-Schmiedebergs Arch.Exp.Pathol.Pharmakol., 195, 71, (1940)] using guinea pigs (body weight: approximately 500 g, male Hartley guinea pigs).
After canulating the trachea of the guinea pigs under pentobarbital anaesthesia (30 mg/kg, s.c.) and treatment with gallamine (20 mg/kg, i.v.), the animals were ventilated artificially with a constant volume respiration pump (UgoBasile, 7025) at a frequency of 60 per minute and a tidal volume of 8 ml/kg. Airway pressure during artificial respiration was amplified by means of a pressure transducer (Nihon Koden, TP-200T) installed in a branch of the trachea cannula, detected (Nihon Koden, AP-610G), and recorded with a recorder (Nihon Koden, WT-685G). Following pre-treatment with atropine (1 mg/kg, i.v.) and propranolol (1 mg/kg, i.v.), the test drug was administered intravenously. Five minutes later, bronchoconstriction was induced with [Nle^10]-NKA[4-10] at […], i.v., and then airway pressure was measured for 10 minutes. The inhibitory effect was determined based on the intensity of bronchoconstriction of guinea pigs not treated with the test drug, and expressed as the percent of inhibition (%) and the dose level that caused inhibition of 50% (ID50).

[5] = [3H]-substance P 1 nM, crude lung membrane fraction of male Hartley guinea pigs, read-out: IC50 (converted)
[6] = [3H]-SR-48968 1 nM, crude ileum membrane fraction of male Hartley guinea pigs, read-out: IC50 (converted)

T1 sequence (P30547 whole entry): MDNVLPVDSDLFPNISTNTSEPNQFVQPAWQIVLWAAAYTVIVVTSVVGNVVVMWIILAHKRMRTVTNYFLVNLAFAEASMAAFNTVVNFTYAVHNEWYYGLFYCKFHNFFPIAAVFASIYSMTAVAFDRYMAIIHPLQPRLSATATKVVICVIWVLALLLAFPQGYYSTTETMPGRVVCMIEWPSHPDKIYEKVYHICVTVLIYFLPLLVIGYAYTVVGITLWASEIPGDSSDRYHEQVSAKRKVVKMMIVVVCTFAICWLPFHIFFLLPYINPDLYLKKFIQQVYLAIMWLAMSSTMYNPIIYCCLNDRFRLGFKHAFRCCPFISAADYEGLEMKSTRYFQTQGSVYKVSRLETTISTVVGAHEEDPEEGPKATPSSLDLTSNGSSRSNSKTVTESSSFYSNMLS

Row | Structure (SMILES) | ID50 [1] [mg/kg] | IC50 [2, 5] [nM] | IC50 [3, 6] [nM] | ID50 [4] [mg/kg] | IC50 [2] [nM] | IC50 [3] [nM] | activity in NK2 binding test (in words) ([3]; comment on Table 5)
1 | Cc1cc(C)cc(C(=O)N(C)C[C@@H](CCN2CCC3(CC2)CN(S(C)(=O)=O)c2ccccc23)c2ccc(Cl)c(Cl)c2)c1 [Compound A] | 5.8 | 60.4 | 28.6 | >10 |  |  | 
2 | CN(C[C@@H](CCN1CCC2(CCc3ccccc32)CC1)c1ccc(Cl)c(Cl)c1)C(=O)c1ccccc1 [Compound B] | >10 |  |  | 0.37 | > 1920 | 4.22 | 
3 | COc1cc(C(=O)N2CC[C@](CCN3CCC(C(N)=O)(c4ccccc4)CC3)(c3ccc(Cl)c(Cl)c3)C2)cc(OC)c1OC [Compound C] | 0.019 | 10.1 | 48.4 | 1.7 |  |  | very weak activity
4 | COc1cc(C(=O)N2CO[C@](CCN3CCC4(CC3)c3ccccc3C[S@+]4[O-])(c3ccc(Cl)c(Cl)c3)C2)cc(OC)c1OC [Example 75, 1-{2-[(5R)-(3,4-Dichlorophenyl)-3-(3,4,5-trimethoxybenzoyl)oxazolidine-5-yl]ethyl}spiro[benzo[c]thiophene-1(3H),4′-piperidine]-(2S)-oxide] | 0.025 | 8.94 | 1.29 | 0.074 |  |  | 
5 | COc1cc(C(=O)N2CCOC(CCN3CCC4(CC3)c3ccccc3C[S+]4[O-])(c3ccc(Cl)c(Cl)c3)C2)cc(OC)c1OC [Example 76, 1-{2-[(2R)-(3,4-Dichlorophenyl)-4-(3,4,5-trimethoxybenzoyl)morpholin-2-yl]ethyl}spiro[benzo[c]thiophene-1(3H),4′-piperidine]-(2S)-oxide] | 0.047 |  |  | 0.047 |  |  | 
